Experimental findings from patent EP1641803B1, “THIENOPYRIMIDINE DERIVATIVES AS POTASSIUM CHANNEL INHIBITORS” (Xention Limited, priority 2003, dated 2004) are described below.

For test [1], the target named is hKv1.5 (Homo sapiens, UniProt P22460). Description: Kv1.5 Autopatch Electrophysiology (whole cell patch-clamp). The format is cell-based. As to conditions: compound at 1µM, room temperature (22-24°C), held at -80mV, step to 0mV for 1000ms, total charge measured. The protocol: The external bathing solution contained (in mM): 150 NaCl, 10 KCl, […], 3 MgCl2, 1 CaCl2, 10 HEPES, pH 7.4. Patch pipettes were filled with an electrode solution of composition (in mM): 160 KCl, 0.5 MgCl2, 10 HEPES, 1 EGTA, pH 7.4 with KOH.
Compounds were dissolved in DMSO (100 %) and made up in the external bather at a concentration of 1µM. All experiments were conducted at room temperature (22-24°C).
A cell suspension (10 ml), with a density of 100,000 cells/ml, was aliquoted into a 15ml centrifuge tube and transferred to an incubator (37°C, 5% CO2) for approximately one hour before use. Following 60 min incubation, a tube was taken and centrifuged at 1000 rpm for 4 mins at room temperature. 9.5 ml supernatant was thence discarded, leaving a cell pellet at the bottom of the tube. The pellet was then resuspended using 100 µl of cold (4 °C), filtered (0.22 µm), 0.2 % BSA/bather solution (0.02g BSA/10ml bather). The bottom of the tube was manually agitated gently until the solution became cloudy with cells. The 100 µl cell resuspension solution was then stored on the bench at 4 °C (using a Peltier-based temperature control device) until used.
A length of capillary glass (1B150F-4, WPI) was dipped into the cell suspension solution, such that - 3 cm column of fluid was taken up by capillary action. A Ag/AgCl wire was dropped into the non-dipped end of the capillary also. The outside of the solution-filled end of the capillary was then dried and the capillary was loaded into the AutoPatch™. Borosilicate glass patch pipettes (from 1.5mm OD, thin-walled filamented, GC150-TF capillary glass, Harvard) were pulled using a DMZ pipette puller (Zeitz Instruments), and were back-filled using the internal pipette solution, being careful that no bubbles remain at the tip or in the body of the pipette. Patch pipettes typically had resistances of 2.3-3.5 MΩ. Once filled, the pipette tip and a proportion of the shaft (- 15 mm) were dipped into Sigmacote (Sigma). The recording pipette was then loaded into the AutoPatch™.
Automated patch-clamping was initiated by the operator, but thereafter AutoPatch.exe continued the experiment providing that pre-set conditions and criteria were satisfied.
Whole cell patch-clamp recordings were made using the AutoPatch™ rig, which incorporated an EPC9 amplifier (HEKA, Germany) under control of Pulse software (v8.54, HEKA, Germany), a motion controller with 2 translators (Newport, UK), valve controller (VF1) and a c-level suction device all at room temperature (22-24°C). This equipment was completely under the control of AutoPatch.exe and operator intervention was only made when there was a requirement to refill the drug reservoirs or to prevent the loss of a cell due to a technical error. Cells with an Rseries greater than 18 MΩ were discounted from the experiment.
Qualification stages prior to perfusion and drug application ensured that the observed current met the criteria for the experiment. Only those cells with an IK > 500 pA were used for experiments. Cells were continuously perfused with external solution at a flow rate of 1.8-2 ml/minute. […] Online analysis of the hKv1.5 current during the application of compounds was performed by the AutoPatch™ software. Voltage-step protocols and analysis of data was performed as described for conventional electrophysiology.
Electrophysiology voltage-step protocols and analysis of data was performed as follows. Data was sampled at 5kHz, and filtered with a -3 dB bandwidth of 2.5kHz. Cells were held at a voltage of -80mV. Currents were evoked to a voltage step for 1000ms in duration at 0mV every 5s. Currents were analysed using Pulsefit software (v8.54, HEKA, Germany), with the total charge measured during the whole of the voltage step. All other plots were produced using Igor Pro (WaveMetrics).
(In general: The patch-clamp technique gives a direct electrical read-out from membranes.)

In test [2] the target is T1, human Kv1.5 (Homo sapiens, UniProt P22460).
T1 construct: expressed in transfected cells
Description: Kv1.5 Rb+ Efflux Assay. The format is cell-based. The settings on record: inhibition of 86Rb+ efflux through Kv1.5; cells stably transfected with human Kv1.5; 10 point concentration response curves n=2; normalised to 2.5mM 4 amino-pyridine block. The protocol: The pore of a potassium channel is permeable to other monovalent cations such as Rb^+ and Tl^+. Analysis of cellular efflux of potassium channel permeable ions enables potassium channel activity to be monitored directly. Cells stably transfected with cDNA for human Kv1.5 (in pEF6::VA-His-TOPO) were grown in Dulbecco's Modified Eagle media (DMEM) alpha supplemented with 10% Fetal Calf Serum (FCS), 20 µl/ml penicillin (5000U/ml) streptomycin (5000µg/ml), 10µl/ml [100x] glutamine, and blasticidin (7.5µg/ml). Cells were dispensed into 96 well cellstar TC plates and allowed to grow until a confluent monolayer was visible. On the morning of the assay run, cold media was aspirated using the TECAN plate washer, and a 50µl media spike containing 2µCi/ml (37kBq/ml) ^86Rb^+ added to each well containing cells using the Shallow-Well Matrix Platemate. Plates were placed in a incubator at 37°C for a minimum of 3 hours. Unloaded ^86Rb^+ in the "hot" media was aspirated and each well washed 4x250µl with Earls Balanced Salt Solution (EBSS) which contained 5mM KCl, 140mM NaCl, 2mM CaCl2, 1mM MgSO4, 10mM HEPES, and 5mM glucose, pH 7.4, 290-300 mOsm. These cells were then pre-incubated with 50µl of EBSS +/- test compounds for 10 minutes at room temperature. After the 10 minute incubation, 50µl of modified EBSS which contained 145mM KCl, 2mM CaCl2, 1mM MgSO4, 10mM HEPES, 5mM glucose, pH 7.4, 290-300 mOsm, was added, and the cells were incubated for a further 10 minutes at room temperature. The high KCl EBSS was used to depolarise cells to a membrane potential that would activate Kv1.5 channels. After the final incubation 80µl/100µl of the reaction from each well was transferred to equivalent wells in a Packard "Optiplate" white 96 well plate and counted in a Packard TopCount liquid scintillation counter by Cerenkov emission. Percentage inhibition ^86Rb^+ efflux through Kv1.5 was calculated by normalisation to 2.5mM 4 amino-pyridine control block of Kv1.5. Alternatively cells were loaded with ^85Rb^+ and quantified by atomic absorption spectroscopy. IC50 determinations were derived from 10 point concentration response curves n=2 using the method described above. Data was fitted as variable slope sigmoidal fit using Graphpad Prism (V3.02) software.

hKv1.5, sequence (P22460 whole entry): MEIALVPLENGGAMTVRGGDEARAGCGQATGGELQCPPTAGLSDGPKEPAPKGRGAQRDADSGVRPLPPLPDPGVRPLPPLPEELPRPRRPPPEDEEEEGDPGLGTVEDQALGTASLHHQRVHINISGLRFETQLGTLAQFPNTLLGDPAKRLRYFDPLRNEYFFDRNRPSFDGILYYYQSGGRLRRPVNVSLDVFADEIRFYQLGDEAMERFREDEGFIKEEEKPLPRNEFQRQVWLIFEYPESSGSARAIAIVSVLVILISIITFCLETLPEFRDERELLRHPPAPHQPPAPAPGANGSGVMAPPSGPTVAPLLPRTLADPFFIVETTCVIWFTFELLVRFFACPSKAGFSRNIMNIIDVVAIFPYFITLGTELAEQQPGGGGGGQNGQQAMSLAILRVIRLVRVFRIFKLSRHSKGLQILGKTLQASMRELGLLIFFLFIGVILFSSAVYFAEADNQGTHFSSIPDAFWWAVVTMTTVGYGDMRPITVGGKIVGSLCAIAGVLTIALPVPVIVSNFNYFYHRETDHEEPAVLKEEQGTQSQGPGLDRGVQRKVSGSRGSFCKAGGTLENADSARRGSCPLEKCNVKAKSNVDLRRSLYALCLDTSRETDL
T1 sequence (P22460 whole entry): as above

Usually inhibition stands for the drop in the measured response relative to a control, in per cent. Low readings indicate little suppression, high ones strong suppression. As usually defined, the IC50 is the concentration needed to halve the response being measured. In turn, `C=CCNc1ncnc2scc(-c3cccs3)c12` [Example 99, Allyl-(5-thiophen-2-yl-thieno[2,3-d]pyrimidin-4-yl)-amine] came in with an inhibition at 1 µM in test [1] of 17.5%. In test [2], this compound showed an IC50 of 7.53 µM.

For `CN(Cc1ccco1)c1ncnc2scc(-c3cccs3)c12` [Example 100, Furan-2-ylmethyl-methyl-(5-thiophen-2-yl-thieno[2,3-d]pyrimidin-4-yl)-amine], in test [1], the inhibition at 1 µM was found to be 19.9%. In test [2], this compound returned an IC50 of 9.71 µM.

As to `CN(C)C(=O)CNc1ncnc2scc(-c3ccccc3)c12` [Example 103, N,N-Dimethyl-2-(5-phenyl-thieno[2,3-d]pyrimidin-4-ylamino)-acetamide], at 1 µM the inhibition in test [1] was 13.6%. For the same compound, the IC50 in test [2] was above 30 µM.

With `c1ccc(-c2csc3ncnc(NCc4ccccn4)c23)cc1` [Example 105, (5-Phenyl-thieno[2,3-d]pyrimidin-4-yl)-pyridin-2-ylmethyl-amine], in test [1], at 1 µM the inhibition was 63%. This compound also displayed an IC50 in test [2] of 0.28 µM.

`c1ccc(-c2csc3ncnc(OCc4ccccn4)c23)cc1` [Example 106, 5-Phenyl-4-(pyridin-2-ylmethoxy)-thieno[2,3-d]pyrimidine] came in with an inhibition at 1 µM in test [1] of 21.9%. Moreover, in test [2], the IC50 amounted to 0.33 µM.

On to `c1ccc(-c2csc3ncnc(NCc4ccoc4)c23)cc1` [Example 107, Furan-3-ylmethyl-(5-phenyl-thieno[2,3-d]pyrimidin-4-yl)-amine], for which the inhibition at 1 µM in test [1] came out at 25.3%. The compound also displayed an IC50 in test [2] of 1.05 µM.

For `Cc1ccc(CNc2ncnc3scc(-c4ccccc4)c23)o1` [Example 108, (5-Methyl-furan-2-ylmethyl)-(5-phenyl-thieno[2,3-d]pyrimidin-4-yl)-amine], the inhibition at 1 µM in test [1] turned out to be 37.2%. Also, in test [2], the IC50 is 0.41 µM.

`c1ccc(-c2csc3ncnc(OCc4ccco4)c23)cc1` [Example 109, 4-(Furan-2-ylmethoxy)-5-phenyl-thieno[2,3-d]pyrimidine]: the inhibition at 1 µM in test [1] worked out at 52.3%. This compound also returned an IC50 in test [2] of 0.8 µM.

As for `Cn1cccc1CNc1ncnc2scc(-c3ccccc3)c12` [Example 110, (1-Methyl-1H-pyrrol-2-ylmethyl)-(5-phenyl-thieno[2,3-d]pyrimidin-4-yl)-amine], 1 µM produced 14.2% inhibition in test [1]. The same compound came in with an IC50 in test [2] of 3.9 µM.

As usually defined, the % Inhibition is the drop in the measured response relative to a control, in per cent. On to `c1ccc(-c2csc3ncnc(NCCc4ccccn4)c23)cc1` [Example 111, (5-Phenyl-thieno[2,3-d]pyrimidin-4-yl)-(2-pyridin-2-yl-ethyl)-amine], for which, in test [1], testing at 1 µM gave an inhibition of 40% and the “% Inhibition at 1µM” value was 22.2%. Besides, in test [2], the IC50 worked out at 4.49 µM.

In the case of `COC(=O)CNc1ncnc2scc(-c3ccccc3)c12` [Example 112, (5-Phenyl-thieno[2,3-d]pyrimidin-4-ylamino)-acetic acid methyl ester], the inhibition at 1 µM in test [1] stood at 43.5%. Further, in test [2], half-maximal inhibition (IC50) required 5.03 µM.

Turning to `c1csc(CNc2ncnc3scc(-c4cccs4)c23)c1` [Example 115, Thiophen-2-ylmethyl-(5-thiophen-2-yl-thieno[2,3-d]pyrimidin-4-yl)-amine], the “% Inhibition at 1µM” value in test [1] came out at 45.9%. The compound also showed an IC50 in test [2] of 7.07 µM.

In the case of `c1ccc(-c2csc3ncnc(SCc4ccco4)c23)cc1` [Example 117, 4-(Furan-2-ylmethylsulfanyl)-5-phenyl-thieno[2,3-d]pyrimidine], in test [1], the inhibition at 1 µM came out at 43.6% and the “% Inhibition at 1µM” value worked out at 57.2%. The compound further returned an IC50 in test [2] of 9.37 µM.

`c1ccc(-c2csc3ncnc(NCCc4cccs4)c23)cc1` [Example 118, (5-Phenyl-thieno[2,3-d]pyrimidin-4-yl)-(2-thiophen-2-yl-ethyl)-amine]: in test [1], the inhibition at 1 µM worked out at 15.8%. Also, in test [2], the IC50 is 8.56 µM.

For the compound `c1ccc(COc2ncnc3scc(-c4ccccc4)c23)cc1` [Example 119, 4-Benzyloxy-5-phenyl-thieno[2,3-d]pyrimidine], 1 µM produced 44.1% inhibition in test [1]. The compound further had an IC50 in test [2] of 5.79 µM.

Take `c1ccc(-c2csc3ncnc(SCc4ccccn4)c23)cc1` [Example 120, 5-Phenyl-4-(pyridin-2-ylmethylsulfanyl)-thieno[2,3-d]pyrimidine]: the inhibition at 1 µM in test [1] stood at 25%. This compound also returned an IC50 in test [2] of 12.7 µM.

The compound `Cc1ccc(-c2csc3ncnc(NCc4ccccn4)c23)nc1` [Example 121, [5-(5-Methyl-pyridin-2-yl)-thieno[2,3-d]pyrimidin-4-yl]-pyridin-2-ylmethyl-amine] yielded an inhibition at 1 µM in test [1] of 82.6%. The compound further had an IC50 in test [2] of 2.09 µM.

In test [1], `Cc1ccc(-c2csc3ncnc(NCc4ccco4)c23)nc1` [Example 122, Furan-2-ylmethyl-[5-(5-methyl-pyridin-2-yl)-thieno[2,3-d]pyrimidin-4-yl]-amine] had an inhibition at 1 µM of 36.3%. In addition, the concentration for half-maximal inhibition (IC50) in test [2] was 3.53 µM.

Regarding `Cc1ccc(-c2csc3ncnc(NCc4ccco4)c23)cc1` [Example 126, Furan-2-ylmethyl-(5-p-tolyl-thieno[2,3-d]pyrimidin-4-yl)-amine], the inhibition at 1 µM in test [1] came to 83.4%. In addition, half-maximal inhibition in test [2] (IC50) required 0.47 µM.

`COc1ccc(CCNc2ncnc3scc(-c4ccc(C)cc4)c23)cc1OC` [Example 127, [2-(3,4-Dimethoxy-phenyl)-ethyl]-(5-p-tolyl-thieno[2,3-d]pyrimidin-4-yl)-amine] came in with an inhibition at 1 µM in test [1] of 20.7%. This compound registered an IC50 in test [2] of 5.3 µM.

For the compound `Cc1ccc(-c2csc3ncnc(NCCN4CCNC4=O)c23)cc1` [Example 128, 1-[2-(5-p-Tolyl-thieno[2,3-d]pyrimidin-4-ylamino)-ethyl]-imidazolidin-2-one], in test [1], the inhibition at 1 µM came out at 25%. This compound yielded a 50% inhibitory concentration (IC50) in test [2] above 30 µM.

Consider `Cc1ccc(-c2csc3ncnc(Oc4ccc5ccccc5c4)c23)cc1` [Example 129, 4-(Naphthalen-2-yloxy)-5-p-tolyl-thieno[2,3-d]pyrimidine], for which the inhibition at 1 µM in test [1] stood at 47.4%. This compound displayed an IC50 in test [2] above 30 µM.
